Patent US7687643B2, “Process for preparing 3,3-dimethylindolines” (Amgen Inc., priority 2001, dated 2010)

Each compound was assayed on Human Umbilical Vein Endothelial cells (VEGF-stimulated) (assay: HUVEC proliferation assay, VEGF-stimulated). Settings: VEGF 50 ng/mL, 72 h, CyQuant, read-out: inhibited VEGF-stimulated HUVEC proliferation at a level.
Assay type: cell-based
Procedure, shortened: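 Pooled-donor HUVECs (passage 2–3) seeded in DMEM+10% FBS for 22 h, then pre-treated 2–3 h with five-point, five-fold compound dilutions (0.25% DMSO final). Stimulated with 50 ng/mL VEGF (bFGF 20 ng/mL on separate plates) for 72 h at 37 °C. CyQuant fluorescence (485/530 nm) after freeze-thaw; IC50 from 4-parameter fit.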

**Q.** `CC(C)N1CCC[C@H]1COc1cc(NC(=O)c2cccnc2NCc2ccncc2)cc(C(F)(F)F)c1` [Example 1096, N-(3-((((2S)-1-(1-methylethyl)-2-pyrrolidinyl)methyl)oxy)-5-(trifluoromethyl)phenyl)-2-((4-pyridinylmethyl)amino)-3-pyridinecarboxamide] was tested. Which IC50 did it give?
**A.** < 50 nM

**Q.** Which IC50 does the source give for `CC1(C)CN(Cc2cc[n+]([O-])cc2)c2cc(NC(=O)c3cccnc3NCc3ccncc3)ccc21` [Example 1099, N-[3,3-Dimethyl-1-(1-oxy-pyridin-4-ylmethyl)-2,3-dihydro-1H-indol-6-yl]-2-[(pyridin-4-ylmethyl)-amino]-nicotinamide] here?
**A.** < 50 nM

**Q.** With `CC1(C)CN(C(=O)c2cc[n+]([O-])cc2)c2cc(NC(=O)c3cccnc3NCc3ccncc3)ccc21` [Example 1100, N-[3,3-Dimethyl-1-(1-oxy-pyridine-4-carbonyl)-2,3-dihydro-1H-indol-6-yl]-2-[(pyridin-4-ylmethyl)-amino]-nicotinamide] as the compound, how does the IC50 read?
**A.** < 50 nM

**Q.** `CNc1cc(CNc2ncccc2C(=O)Nc2ccc3c(c2)N(C(C)=O)CC3(C)C)ccn1` [Example 1103, N-(1-Acetyl-3,3-dimethyl-2,3-dihydro-1H-indol-6-yl)-2-[(2-methylamino-pyridin-4-ylmethyl)-amino]-nicotinamide] was tested. Which IC50 did it give?
**A.** < 50 nM

**Q.** Which IC50 does the source give for `CNc1cc(CNc2ncccc2C(=O)Nc2ccc3c(c2)NCC3(C)C)ccn1` [Example 1104, N-(3,3-Dimethyl-2,3-dihydro-1H-indol-6-yl)-2-[(2-methylamino-pyridin-4-ylmethyl)-amino]-nicotinamide] here?
**A.** < 50 nM

**Q.** With `CCOC(=O)N1CC2(CC2)c2ccc(NC(=O)c3cccnc3NCc3ccnc(NC)c3)cc21` [Example 1106, Ethyl [1,2-dihydro-6-({2-[(2-methylamino-pyridin-4-ylmethyl)-amino]-pyridine-3-carbonyl}-amino)-3-spiro-1′-cyclopropyl-1H-indole]-1-carbamate] as the compound, how does the IC50 read?
**A.** < 50 nM

**Q.** How did the IC50 turn out when `CNc1cc(CNc2ncccc2C(=O)Nc2ccc3c(c2)NCC32CC2)ccn1` [Example 1107, N-(1,2-dihydroindol-3-spiro-1′-cyclopropane-6-yl)-2-[(2-methylaminopyridin-4-ylmethyl)-amino]-nicotinamide] was run?
**A.** < 50 nM

**Q.** For `CCOC(=O)N1CC2(CC2)c2ccc(NC(=O)c3cccnc3NCc3ccnc(NC)n3)cc21` [Example 1108, Ethyl [1,2-dihydro-6-({2-[(2-methylamino-pyrimidin-4-ylmethyl)-amino]-pyridine-3-carbonyl}-amino)-3-spiro-1′-cyclopropyl-1H-indole]-1-carbamate], which IC50 is on record?
**A.** < 50 nM

**Q.** How did the IC50 turn out when `CC1(C)CCNc2cc(NC(=O)c3cccnc3NCc3ccncc3)ccc21` [Example 1109, N-(4,4-Dimethyl-1,2,3,4-tetrahydro-quinolin-7-yl)-2-[(pyridin-4-ylmethyl)-amino]-nicotinamide] was run?
**A.** < 50 nM

**Q.** How did the IC50 turn out when `CC1(C)CCNc2cc(NC(=O)c3cccnc3NCc3ccncn3)ccc21` [Example 1110, N-(4,4-Dimethyl-1,2,3,4-tetrahydro-quinolin-7-yl)-2-[(pyrimidin-4-ylmethyl)-amino]-nicotinamide] was run?
**A.** < 50 nM

**Q.** With `CC1(C)CCNc2cc(NC(=O)c3cccnc3NCc3ccnc(N)c3)ccc21` [Example 1111, 2-[(2-Amino-pyridin-4-ylmethyl)-amino]-N-(4,4-dimethyl-1,2,3,4-tetrahydro-quinolin-7-yl)-nicotinamide] as the compound, how does the IC50 read?
**A.** < 50 nM

**Q.** Which IC50 does the source give for `CNc1nccc(CNc2ncccc2C(=O)Nc2ccc3c(c2)NCCC3(C)C)n1` [Example 1112, N-(4,4-Dimethyl-1,2,3,4-tetrahydro-quinolin-7-yl)-2-[(2-methylamino-pyrimidin-4-ylmethyl)-amino]-nicotinamide] here?
**A.** < 50 nM

**Q.** With `COc1cc(CNc2ncccc2C(=O)Nc2ccc3c(c2)NCCC3(C)C)ccn1` [Example 1113, N-(4,4-Dimethyl-1,2,3,4-tetrahydro-quinolin-7-yl)-2-[(2-methoxy-pyridin-4-ylmethyl)-amino]-nicotinamide] as the compound, how does the IC50 read?
**A.** < 50 nM

**Q.** For `CC1(C)CC(=O)Nc2cc(NC(=O)c3cccnc3NCc3ccncc3)ccc21` [Example 1114, N-(4,4-Dimethyl-2-oxo-1,2,3,4-tetrahydro-quinolin-7-yl)-2-[(pyridin-4-ylmethyl)-amino]-nicotinamide], which IC50 is on record?
**A.** < 50 nM

**Q.** With `CNc1nccc(CNc2ncccc2C(=O)Nc2ccc3c(c2)NC(=O)CC3(C)C)n1` [Example 1115, N-(4,4-Dimethyl-2-oxo-1,2,3,4-tetrahydro-quinolin-7-yl)-2-[(2-methylamino-pyrimidin-4-ylmethyl)-amino]-nicotinamide] as the compound, how does the IC50 read?
**A.** < 50 nM

**Q.** `COc1cc(CNc2ncccc2C(=O)Nc2ccc3c(c2)NC(=O)CC3(C)C)ccn1` [Example 1116, N-(4,4-Dimethyl-2-oxo-1,2,3,4-tetrahydro-quinolin-7-yl)-2-[(2-methoxy-pyridin-4-ylmethyl)-amino]-nicotinamide] was tested. Which IC50 did it give?
**A.** < 50 nM

**Q.** For `CNc1cc(CNc2ncccc2C(=O)Nc2ccc3c(c2)NC(=O)CC3(C)C)ccn1` [Example 1119, N-(4,4-Dimethyl-2-oxo-1,2,3,4-tetrahydro-quinolin-7-yl)-2-[(2-methylamino-pyridin-4-ylmethyl)-amino]-nicotinamide], which IC50 is on record?
**A.** < 50 nM

**Q.** How did the IC50 turn out when `CC(C)c1ccc(NC(=O)c2cccnc2NCc2ccc3ocnc3c2)cc1` [Example 1120, 2-((1,3-Benzoxazol-5-ylmethyl)amino)-N-(4-(1-methylethyl)phenyl)-3-pyridinecarboxamide] was run?
**A.** < 50 nM

**Q.** `CCN1CCC(C)(C)c2ccc(NC(=O)c3cccnc3NCc3ccncc3)cc21` [Example 1124, N-(1-Ethyl-4,4-dimethyl-1,2,3,4-tetrahydro-quinolin-7-yl)-2-[(pyridin-4-ylmethyl)-amino]-nicotinamide] was tested. Which IC50 did it give?
**A.** < 50 nM

**Q.** Which IC50 does the source give for `CCN1CCC(C)(C)c2ccc(NC(=O)c3cccnc3NCc3ccnc(N)c3)cc21` [Example 1125, 2-[(2-Amino-pyridin-4-ylmethyl)-amino]-N-(1-ethyl-4,4-dimethyl-1,2,3,4-tetrahydro-quinolin-7-yl)-nicotinamide] here?
**A.** < 50 nM

**Q.** For `COc1cc(CNc2ncccc2C(=O)Nc2ccc3c(c2)CNCC32CC2)ccn1` [Example 1128, N-(4-Spiro-1′-cyclopropane-1,2,3,4-tetrahydroisoquinolin-7-yl)-2-[(2-methoxy-pyridin-4-ylmethyl)-amino]-nicotinamide], which IC50 is on record?
**A.** < 50 nM

**Q.** How did the IC50 turn out when `CNc1cc(CNc2ncccc2C(=O)Nc2ccc3c(c2)CNCC3(C)C)ccn1` [Example 1130, N-(4,4-Dimethyl-1,2,3,4-tetrahydro-isoquinolin-7-yl)-2-[(2-methylamino-pyridin-4-ylmethyl)-amino]-nicotinamide] was run?
**A.** < 50 nM

**Q.** For `COc1nccc(CNc2ncccc2C(=O)Nc2ccc3c(c2)CNCC3(C)C)n1` [Example 1132, N-(4,4-Dimethyl-1,2,3,4-tetrahydro-isoquinolin-7-yl)-2-[(2-methoxy-pyrimidin-4-ylmethyl)-amino]-nicotinamide], which IC50 is on record?
**A.** < 50 nM

**Q.** Which IC50 does the source give for `CNc1nccc(CNc2ncccc2C(=O)Nc2ccc3c(n2)NC(=O)CC3(C)C)n1` [Example 1135, N-(5,5-Dimethyl-7-oxo-5,6,7,8-tetrahydro-[1,8]naphthyridin-2-yl)-2-[(2-methylamino-pyrimidin-4-ylmethyl)-amino]-nicotinamide] here?
**A.** < 50 nM

**Q.** For `O=C(Nc1cccc(C(OC[C@@H]2CCCN2)(C(F)(F)F)C(F)(F)F)c1)c1cccnc1NCc1ccncc1` [Example 1138, 2-[(Pyridin-4-ylmethyl)-amino]-N-{3-[2,2,2-trifluoro-1-(pyrrolidin-2-ylmethoxy)-1-trifluoromethyl-ethyl]-phenyl}-nicotinamide], which IC50 is on record?
**A.** < 50 nM

**Q.** `O=C(Nc1ccc(C(OC[C@@H]2CCCN2)(C(F)(F)F)C(F)(F)F)cc1)c1cccnc1NCc1ccncc1` [Example 1141, 2-[(Pyridin-4-ylmethyl)-amino]-N-{4-[2,2,2-trifluoro-1-(pyrrolidin-2-ylmethoxy)-1-trifluoromethyl-ethyl]-phenyl}-nicotinamide] was tested. Which IC50 did it give?
**A.** < 50 nM

**Q.** For `CNc1cc(CNc2ncccc2C(=O)Nc2cc(OC[C@@H]3CCCN3C)cc(C(F)(F)F)c2)ccn1` [Example 1143, 2-[(2-Methylamino-pyridin-4-ylmethyl)-amino]-N-[3-(1-methyl-pyrrolidin-2-ylmethoxy)-5-trifluoromethyl-phenyl]-nicotinamide], which IC50 is on record?
**A.** < 50 nM

**Q.** `CNc1nccc(CNc2ncccc2C(=O)Nc2cc(OC[C@@H]3CCCN3C)cc(C(F)(F)F)c2)n1` [Example 1144, 2-[(2-Methylamino-pyrimidin-4-ylmethyl)-amino]-N-[3-(1-methyl-pyrrolidin-2-ylmethoxy)-5-trifluoromethyl-phenyl]-nicotinamide] was tested. Which IC50 did it give?
**A.** < 50 nM

**Q.** For `CC1(C)CNCc2cc(NC(=O)c3cccnc3NCc3ccnc4[nH]ccc34)ccc21` [Example 1145, N-(4,4-Dimethyl-1,2,3,4-tetrahydro-isoquinolin-7-yl)-2-[(1H-pyrrolo[2,3-b]pyridin-4-ylmethyl)-amino]-nicotinamide], which IC50 is on record?
**A.** < 50 nM

**Q.** Which IC50 does the source give for `CC1(C)CNCc2cc(NC(=O)c3cccnc3NCc3ccnc4c3CCN4)ccc21` [Example 1147, 2-[(2,3-Dihydro-1H-pyrrolo[2,3-b]pyridin-4-ylmethyl)-amino]-N-(4,4-dimethyl-1,2,3,4-tetrahydro-isoquinolin-7-yl)-nicotinamide] here?
**A.** < 50 nM

**Q.** How did the IC50 turn out when `CNc1cc(CNc2ncccc2C(=O)Nc2cc(Cl)cc(NC(=O)CN(C)C)c2)ccn1` [Example 1149, N-[3-Chloro-5-(2-dimethylamino-acetylamino)-phenyl]-2-[(2-methylamino-pyridin-4-ylmethyl)-amino]-nicotinamide] was run?
**A.** < 50 nM

**Q.** How did the IC50 turn out when `CC1(C)CCNc2cc(NC(=O)c3cccnc3NCc3ccnc(N4CCOCC4)c3)ccc21` [Example 1154, N-(4,4-Dimethyl-1,2,3,4-tetrahydro-quinolin-7-yl)-2-[(2-morpholin-4-yl-pyridin-4-ylmethyl)-amino]-nicotinamide] was run?
**A.** < 50 nM

**Q.** Which IC50 does the source give for `CC1(C)CNCc2cc(NC(=O)c3cccnc3NCc3ccnc(N)c3)ccc21` [Example 1168, 2-(((2-Amino-4-pyridinyl)methyl)amino)-N-(4,4-dimethyl-1,2,3,4-tetrahydro-7-isoquinolinyl)-3-pyridinecarboxamide] here?
**A.** < 50 nM
